Laboratory results as given in patent US9422318B2, “Epoxyeicosatrienoic acid analogs and methods of making and using the same” (THE MEDICAL COLLEGE OF WISCONSIN, INC., priority 2011, dated 2016).
Like-named read-outs stand apart in the source and are kept apart here.

Columns and labels:
bovine coronary artery = test: Vasorelaxant activity in bovine coronary artery rings; conditions: for Vascular Relax. % (10 μM): rings precontracted with U-46619, 100% relaxation = basal pre-U-46619 tension; for EC50: Bos taurus, bovine coronary artery rings precontracted with U-46619, read-out: Vascular Relax. EC50
Procedure: Vasorelaxant activity was measured in bovine coronary artery. Bovine hearts were obtained and the left anterior descending coronary artery was dissected and cleaned of connective tissue. Vessels of 1 mm diameter were cut into rings of 3 mm width as previously described (3, 27, 39). […] The vessels were suspended from a pair of stainless steel hooks in a 6-ml water jacketed organ chamber. […] One hook was anchored to a steel rod and the other hook to a force transducer (model FT-03C; Grass Instruments, West Warwick, R.I.). Tension of the vessel was measured by an ETH-400 bridge amplifier, and the data were acquired with a MacLab 8e analog-to-digital converter and MacLab software version 3.5.6 (AD Instruments, Milford, Mass.) and stored on a Macintosh computer for subsequent data analysis.
Basal tension was set at the length-tension maximum of 3.5 g and equilibrated for 1.5 h. KCl (40 mM) was added to the chamber until reproducible maximal contractions were maintained. […] Cumulative additions of compounds were added to the chamber. Between concentration-response curves, the chambers were rinsed with fresh Krebs buffer, 40 mM KCl was administered to determine the maximum contraction, and the vessels were rinsed. Consecutive concentration-response curves were performed with 14,15-EET followed by a concentration-response curve to a compound. The experiment was always repeated with the order of the agonists reversed. […] The relaxation was plotted versus compound concentration and the EC50 determined utilizing statistical software.

Human recombinant sEH = Human recombinant sEH (Homo sapiens (Human), UniProt P34913); test: Soluble epoxide hydrolase inhibition (PHOME fluorescent substrate); assay type: biochemical
Chain of Human recombinant sEH (P34913 whole entry): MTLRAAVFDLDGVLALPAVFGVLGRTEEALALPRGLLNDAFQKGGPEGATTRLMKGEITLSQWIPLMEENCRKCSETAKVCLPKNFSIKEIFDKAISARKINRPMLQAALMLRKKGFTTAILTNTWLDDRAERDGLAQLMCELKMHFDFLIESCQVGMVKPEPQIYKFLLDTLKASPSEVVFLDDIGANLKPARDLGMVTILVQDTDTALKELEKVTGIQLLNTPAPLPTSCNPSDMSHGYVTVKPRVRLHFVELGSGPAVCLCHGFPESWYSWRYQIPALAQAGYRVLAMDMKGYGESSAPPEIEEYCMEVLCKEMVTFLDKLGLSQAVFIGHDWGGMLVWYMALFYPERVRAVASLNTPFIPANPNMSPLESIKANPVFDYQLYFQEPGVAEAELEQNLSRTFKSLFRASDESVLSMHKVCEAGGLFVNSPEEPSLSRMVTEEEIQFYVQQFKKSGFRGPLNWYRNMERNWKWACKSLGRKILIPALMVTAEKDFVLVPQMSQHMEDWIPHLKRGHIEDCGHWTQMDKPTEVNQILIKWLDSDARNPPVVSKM
Procedure: Compounds were tested for their ability to inhibit recombinant soluble epoxide hydrolase (sEH) protein. The assay utilizes (3-Phhenyl-oxiranyl)-acetic acid cyano-(6-methoxy-naphthalen-2-yl)-methyl ester (PHOME), a sensitive substrate for sEH that can be used to monitor the activity of both human and murine enzymes. […] Human recombinant sEH was incubated with substrate and compounds ranging in concentration from 0.1 to 1000 nM.

[1] = system: Spontaneously Hypertensive Rats (SHR); test: Telemetry blood pressure and heart rate in spontaneously hypertensive rats; assay type: in vivo, rat
From the text: To accurately detect changes in blood pressure and heart rate, telemetry transmitters (Data Sciences Inc., St. Paul, Minn.) were implanted in rats one week prior to the experimental period according to manufacturer's specifications while under pentobarbital anesthesia. In brief, an incision was made to expose the femoral artery that was occluded to allow insertion of the transmitter catheter. The catheter was secured in place with tissue glue and the transmitter body was sutured in place and the incision line was closed. Rats were allowed to recover from surgery and were returned to individual housing. A baseline arterial pressure was recorded for prior to the experimental period. Mean arterial pressure was continuously recorded throughout the experimental period.
Telemetry transmitters were implanted into male SHR as described. After the surgical recovery period, baseline mean arterial pressure was recorded. In this series of experiments, EET analogs were administered by osmotic pump (2 mg/d, i.p.) and blood pressure was continuously monitored.

[2] = system: cisplatin-induced nephrotoxicity in Wistar-Kyoto (WKY) rats; test: Cisplatin-induced nephrotoxicity in rats; assay type: in vivo, rat
From the text: Experiments were approved and carried out according to the guidelines of the Institutional Animal Care and Use Committee, Medical College of Wisconsin, Milwaukee, USA. Male Wistar-Kyoto (WKY) rats weighing 180-200 g (Charles River, Mass., USA). All animals were kept in a temperature-controlled environment with a 12-h light/dark cycle and were allowed free access to food and water at all times. An acclimatization period of 6 days was allowed for the rats before experimentation. The rats were assigned into four groups. […] Rats received drinking water ad libitum for seven days and on day 7 DMSO (Sigma Aldrich, St. Louis, Mo., USA) was administered (300-500 μl i.p.). […] These rats are pretreated with the EET analog […].) for seven days in drinking water and then on day 7 administered CP as a single injection (7 mg/kg i.p.) followed by another five days treatment with EET-A. […] One day before the rats were sacrificed, urine of each rat was collected over a 24-h period, and the volume was measured. Five days after CP or DMSO administration, rats were anesthetized for blood sample collection followed by euthanasia and tissue collection. Urine and plasma samples were kept frozen at -80° C. until analyzed. The kidneys were removed, washed with physiological saline and stored at -80° C. until used for RT-PCR analysis, thiobarbituric acid reactive substance (TBARS) measurement and caspase 3 activity assay. […] The levels of blood urea nitrogen (BUN) (BioAssay Systems, Hayward, Calif., USA) and serum creatinine (Cayman Chemical Company, Ann Arbor, Mich., USA) were measured spectrophotometrically using commercial kits. Urinary content of creatinine and protein were measured using commercial kits (Cayman Chemical Company, Ann Arbor, Mich., USA), and the activity of urinary N-acetyl-b-glucosaminidase (NAG) in the urine was measured by a kit from Diazyme (Diazyme Laboratories, Poway, Calif., USA). While urine content of kidney injury molecule-1 (KIM-1) was measured using ELISA (R&D Systems, Inc. Minneapolis, Minn., USA). Malondialdehyde (MDA) is a thiobarbituric acid reactive substance (TBARS) that is formed as an end-product of lipid peroxidation and serves as an important index of oxidative stress. […] Using a commercially available kit (Cayman Chemical Company, Ann Arbor, Mich., USA), MDA was measured spectrophotometrically after reaction with thiobarbituric acid. […] Louis, Mo., USA). Kidney homogenate was prepared with a lysis Buffer (50 mM HEPES, pH 7.4, with 5 mM CHAPS and 5 mM DTT). […] The caspase 3 activity is expressed as nmol of AMC/min/μL. Real-Time analysis was carried out to assess the expression of oxidative (gp91phox, NOX1, SOD1, SOD2, SOD3), inflammatory (TNF-α, IL-6, apoptotic (Bax, Bak, Bcl-2) and endoplasmic reticulum stress (GRP78, caspase 12) related genes in the kidney. Total RNA was isolated from kidney homogenate using TRIzol LS reagents (Invitrogen Life Technologies, Carlsbad, Calif., USA) according to the manufacturer's instructions. The isolated RNA was treated with RNase-free DNase (Invitrogen, Carlsbad, Calif., USA) to remove traces of genomic DNA contamination. The mRNA samples were quantified by spectrophotometry at 260 nm and 1 μg of total RNA was reverse-transcribed to cDNA using iScriptTM Select cDNA Synthesis Kit (Bio-Rad, Hercules, Calif., USA). The target gene expression was quantified by iScript One-Step RT-PCR Kit with SYBR green using MyiQTM Single Color Real-Time PCR Detection System (Bio-Rad Laboratories, Hercules, Calif., USA). Each amplified sample in all wells was analyzed for homogeneity using dissociation curve analysis using iQ5 Optical System Software, Version 2.1 (Bio-Rad Laboratories, Hercules, Calif., USA). […] In analyzing the relative expression of the target genes, the Ct values were normalized to a housekeeping gene (pgk1). Statistical analyses were carried out for at least 5-7 experimental samples in each experimental group. Primers used in this study were designed based on several earlier reports. […]

[3] = human recombinant sEH, PHOME substrate, 0.1 to 1000 nM, read-out: sEHi IC50

| Structure (SMILES) | Vascular Relax. % (10 μM) (bovine coronary artery) [%] | further results |
| --- | --- | --- |
| CCCCCNC(=O)NCCCC/C=C\CCCCCCC(=O)N[C@@H](CC(=O)O)C(=O)O (stereo in doubt) [Compound 7, (S)-2-(13-(3-n-Pentylureido)tridec-8(Z)-enamido)succinic acid] | 91 | – |
| CCCCCCC(=O)N(CCCC/C=C\CCCCCCC(=O)OCCOCCOCCO)C(C)C [Compound 1, 2-(2-(2-Hydroxyethoxyl)ethoxy)ethyl 13-(N-isopropylheptanamido)tridec-8(Z)-enoate] | 86 | EC50 (bovine coronary artery): 2.9 µM |
| CCCCCNC(=O)NCCCC/C=C\CCCCCCC(=O)OCCOCCOCCO [Compound 2, 2-(2-(2-Hydroxyethoxyl)ethoxy)ethyl 13-(3-n-pentylureido)tridec-8(Z)-enoate] | 72 | EC50 (bovine coronary artery): 5.1 µM |
| CCCCNC(=O)C(=O)NCCCC/C=C\CCCCCCC(=O)OCCOCCOCCO [Compound 3, 2-(2-(2-Hydroxyethoxyl)ethoxy)ethyl13-(2-(n-butylamino)-2 oxoacetamido)tridec-8(Z)-enoate] | 104 | EC50 (bovine coronary artery): 1.5 µM |
| CCCCCNC(=O)NCCCC/C=C\CCCCOCC(=O)O [Compound 4, 2-(10-(3-n-Pentylureido)dec-5(Z)-enyloxy)acetic acid] | 49 | – |
| CCCCCCC(=O)N(CCCC/C=C\CCCCCCC(=O)NCC(=O)O)C(C)C [Compound 5, 2-(13-(N-Isopropylheptanamido)tridec-8(Z)-enamido)acetic acid] | 95 | IC50 (Human recombinant sEH; [3]): > 0.5 µM |
| CCCCCN(C)C(=O)N(C)CCCC/C=C\CCCCCCC(=O)NCC(=O)O [Compound 6, 2-(13-(1,3-Dimethyl-3-n-pentylureido)tridec-8(Z)-enamido)acetic acid] | 92 | – |
| CCCCCNC(=O)NCCCC/C=C\CCCCCCC(=O)NS(=O)(=O)c1ccccc1 [Compound 8, 13-(3-n-Pentylureido)-N-(phenylsulfonyl)tridec-8(Z)-enamide] | 73 | – |
| CCCCCNC(=O)NCCCC/C=C\CCCCCCC(=O)NS(C)(=O)=O [Compound 9, N-(Methylsulfonyl)-13-(3-n-pentylureido)tridec-8(Z)-enamide] | 61 | – |
| CCCCCNC(=O)NCCCC/C=C\CCCCCCP(=O)([O-])[O-].[Na+].[Na+] [Compound 10] | 71 | – |
| CCCCCNC(=O)NCCCC/C=C\CCCCCCS(=O)(=O)[O-].[Na+] [Compound 11] | 63 | – |
| CCCCCCC(=O)N(CCCC/C=C\CCCCCCc1nnn[nH]1)C(C)C [Compound 19] | 74 | IC50 (Human recombinant sEH; [3]): > 0.5 µM |
| CCCCCNC(=O)NCCCC/C=C\CCCCCCc1nnn[nH]1 [Compound 20] | – | heart rate ([1]; 2 mg/d i.p., vehicle 331±17.0): 325±11.0 BPM |
| CCCCNC(=O)C(=O)NCCCC/C=C\CCCCCCc1nnn[nH]1 [Compound 21] | 96 | – |
| CCCCCNC(=O)NCCCC/C=C\CCCCCCCc1nnn[nH]1 [Compound 22, 1-(13-(1H-Tetrazol-5-yl)tridec-5(Z)-enyl)-3-n-pentylurea] | 110 | – |
| CCCCCNC(=O)NCCCC/C=C\CCCCCCc1noc(=O)[nH]1 [Compound 23] | 89 | – |
| CCCCCCC(=O)N(CCCC/C=C\CCCCCCC1=NOS(=O)N1)C(C)C (stereo not shown) [Compound 26] | – | blood pressure ([1]; 2 mg/d i.p. osmotic pump, after two weeks of treatment, vehicle 141±3.0): 150±5.0 mmHg |
| CCCCCNC(=O)NCCCC/C=C\CCCCCCc1noc(=S)[nH]1 [Compound 28] | 93 | – |
| CCCCCNC(=O)NCCCC/C=C\CCCCCCc1nsc(=O)[nH]1 [Compound 29] | 54 | – |
| CCCCCCC(=O)N(CCCCCOc1cccc2sc(NC(C)=O)nc12)C(C)C [Compound 30, N-(5-(2-Acetamidobenzo[d]thiazol-4-yloxy)pentyl)-N-isopropylheptanamide] | 96 | IC50 (Human recombinant sEH; read-out: SEHi activity IC50): > 0.5 µM; IC50 (Human recombinant sEH; read-out: sEHi IC50): > 0.5 µM; start of blood pressure lowering ([1]; effect maintained until end of two-week treatment): within four days |
| CCCCCNC(=O)NCCCCCOc1cccc2sc(NC(C)=O)nc12 [Compound 31, N-(4-(5-(3-n-Pentylureido)pentyloxy)benzo[d]thiazol-2-yl)acetamide] | 73 | – |
| CCCCNC(=O)C(=O)NCCCCCOc1cccc2sc(NC(C)=O)nc12 [Compound 32, N^1-(5-(2-Acetamidobenzo[d]thiazol-4-yloxy)pentyl)-N^2-n-butyloxalamide] | 96 | IC50 (Human recombinant sEH; [3]): > 0.5 µM |
| CCCCCCC(=O)N(CCCCCOc1cccc2sc(NC(=O)C(C)(C)C)nc12)C(C)C [EET-B, N-Isopropyl-N-(5-(2-pivalamidobenzo[d]thiazol-4-yloxy)pentyl)heptanamide] | – | kidney TBARS formation ([2]; 10 mg/kg/d p.o., vehicle 16±2): 8 ± 1 µmol/g; reductions in renal mRNA expressions of inflammatory markers (TNF-α, IL-6, interleukin-1β) ([2]; cisplatin-administered rats): 40-60%; proteinuria ([2]; cisplatin-administered rats, vehicle 53±5): 32 ± 3 mg/day; reductions in the elevated levels of serum creatinine and BUN ([2]; five days after cisplatin, vs. vehicle): 30-50%; NAG ([2]; urinary, 10 mg/kg/d p.o., vehicle 3.0±0.6): 0.6±0.2 U/d; KIM-1 ([2]; urinary, 10 mg/kg/d p.o., vehicle 296±94): 57 ± 13 ng/day |
